Data from ChEMBL document CHEMBL4507300 (2021).

Assays:
[1] = system: Tyrosine-protein kinase ABL1 (Homo sapiens), P00519 [F317L]; conditions: Compound concentration 1000.0 nM
[2] = system: Tyrosine-protein kinase ABL1 (Homo sapiens), P00519 [H396P]; conditions: Compound concentration 1000.0 nM
[3] = biological target: Tyrosine-protein kinase receptor UFO (Homo sapiens) (UniProt P30530); conditions: Compound concentration 1000.0 nM
[4] = biological target: Bone morphogenetic protein receptor type-1B (Homo sapiens) (UniProt O00238); conditions: Compound concentration 1000.0 nM
[5] = biological target: Casein kinase I isoform alpha (Homo sapiens) (UniProt P48729); conditions: Compound concentration 1000.0 nM
Casein kinase I isoform alpha (Homo sapiens), sequence (P48729 2-337 limits assumed): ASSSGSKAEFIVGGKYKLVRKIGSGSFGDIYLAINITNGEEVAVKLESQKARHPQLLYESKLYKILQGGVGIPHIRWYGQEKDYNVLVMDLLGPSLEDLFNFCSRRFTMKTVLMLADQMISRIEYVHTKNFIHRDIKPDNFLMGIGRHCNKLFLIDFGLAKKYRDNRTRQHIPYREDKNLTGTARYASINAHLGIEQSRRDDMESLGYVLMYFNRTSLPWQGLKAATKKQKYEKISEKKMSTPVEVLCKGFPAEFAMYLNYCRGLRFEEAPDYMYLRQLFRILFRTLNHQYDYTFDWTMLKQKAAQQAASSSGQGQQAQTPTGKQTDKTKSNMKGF

[6] = biological target: Casein kinase I isoform alpha-like (Homo sapiens) (UniProt Q8N752); conditions: Compound concentration 1000.0 nM
[7] = biological target: Serine/threonine-protein kinase DCLK1 (Homo sapiens) (UniProt O15075); conditions: Compound concentration 1000.0 nM
[8] = biological target: Rhodopsin kinase GRK1 (Homo sapiens) (UniProt Q15835); conditions: Compound concentration 1000.0 nM
Rhodopsin kinase GRK1 (Homo sapiens), sequence (Q15835 whole entry): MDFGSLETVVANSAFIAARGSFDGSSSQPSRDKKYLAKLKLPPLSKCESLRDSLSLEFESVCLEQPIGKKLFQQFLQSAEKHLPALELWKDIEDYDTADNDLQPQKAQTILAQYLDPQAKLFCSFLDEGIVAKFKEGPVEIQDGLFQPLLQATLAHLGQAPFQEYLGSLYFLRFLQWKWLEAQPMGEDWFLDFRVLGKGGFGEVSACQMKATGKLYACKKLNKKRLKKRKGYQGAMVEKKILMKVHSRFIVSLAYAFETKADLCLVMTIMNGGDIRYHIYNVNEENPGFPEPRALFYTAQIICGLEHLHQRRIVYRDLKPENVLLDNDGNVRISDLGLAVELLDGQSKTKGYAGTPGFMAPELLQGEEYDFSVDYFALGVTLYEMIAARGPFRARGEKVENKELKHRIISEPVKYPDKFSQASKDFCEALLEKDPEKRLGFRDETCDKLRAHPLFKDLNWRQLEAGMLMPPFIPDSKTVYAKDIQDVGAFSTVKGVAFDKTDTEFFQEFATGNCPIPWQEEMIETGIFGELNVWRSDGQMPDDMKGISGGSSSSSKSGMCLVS

[9] = biological target: Serine/threonine-protein kinase haspin (Homo sapiens) (UniProt Q8TF76); conditions: Compound concentration 1000.0 nM
[10] = biological target: Mitogen-activated protein kinase 8 (Homo sapiens) (UniProt P45983); conditions: Compound concentration 1000.0 nM
[11] = biological target: Mitogen-activated protein kinase kinase kinase kinase 2 (Homo sapiens) (UniProt Q12851); conditions: Compound concentration 1000.0 nM
[12] = biological target: Dual specificity mitogen-activated protein kinase kinase 6 (Homo sapiens) (UniProt P52564); conditions: Compound concentration 1000.0 nM
[13] = biological target: Maternal embryonic leucine zipper kinase (Homo sapiens) (UniProt Q14680); conditions: Compound concentration 1000.0 nM
[14] = biological target: Hepatocyte growth factor receptor (Homo sapiens) (UniProt P08581); conditions: Compound concentration 1000.0 nM
[15] = system: Hepatocyte growth factor receptor (Homo sapiens), P08581 [M1250T]; conditions: Compound concentration 1000.0 nM
[16] = system: Hepatocyte growth factor receptor (Homo sapiens), P08581 [Y1235D]; conditions: Compound concentration 1000.0 nM
[17] = biological target: MAP kinase-interacting serine/threonine-protein kinase 1 (Homo sapiens) (UniProt Q9BUB5); conditions: Compound concentration 1000.0 nM
[18] = biological target: Mitogen-activated protein kinase kinase kinase 11 (Homo sapiens) (UniProt Q16584); conditions: Compound concentration 1000.0 nM
[19] = biological target: Myosin light chain kinase, smooth muscle (Homo sapiens) (UniProt Q15746); conditions: Compound concentration 1000.0 nM
[20] = biological target: Myosin light chain kinase family member 4 (Homo sapiens) (UniProt Q86YV6); conditions: Compound concentration 1000.0 nM
Myosin light chain kinase family member 4 (Homo sapiens), sequence (Q86YV6 whole entry): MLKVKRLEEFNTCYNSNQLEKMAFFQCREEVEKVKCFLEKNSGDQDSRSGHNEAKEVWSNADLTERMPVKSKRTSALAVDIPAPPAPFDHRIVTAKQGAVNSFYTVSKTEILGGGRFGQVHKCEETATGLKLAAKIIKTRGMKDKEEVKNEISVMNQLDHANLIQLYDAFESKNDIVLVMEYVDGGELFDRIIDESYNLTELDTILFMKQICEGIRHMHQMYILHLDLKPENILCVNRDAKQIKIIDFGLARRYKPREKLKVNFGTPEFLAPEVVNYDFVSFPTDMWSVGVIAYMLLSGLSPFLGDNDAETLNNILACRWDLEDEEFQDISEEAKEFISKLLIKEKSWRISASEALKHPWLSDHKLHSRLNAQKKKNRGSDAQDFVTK

[21] = biological target: Serine/threonine-protein kinase Nek10 (Homo sapiens) (UniProt Q6ZWH5); conditions: Compound concentration 1000.0 nM
[22] = biological target: Mitogen-activated protein kinase 14 (Homo sapiens) (UniProt Q16539); conditions: Compound concentration 1000.0 nM
[23] = biological target: Cyclin-dependent kinase 17 (Homo sapiens) (UniProt Q00537); conditions: Compound concentration 1000.0 nM
[24] = biological target: 3-phosphoinositide-dependent protein kinase 1 (Homo sapiens) (UniProt O15530); conditions: Compound concentration 1000.0 nM
[25] = system: Phosphatidylinositol 4,5-bisphosphate 3-kinase catalytic subunit alpha isoform (Homo sapiens), P42336 [Q546K]; conditions: Compound concentration 1000.0 nM
[26] = biological target: Phosphatidylinositol 4,5-bisphosphate 3-kinase catalytic subunit delta isoform (Homo sapiens) (UniProt O00329); conditions: Compound concentration 1000.0 nM
[27] = biological target: Phosphatidylinositol 4,5-bisphosphate 3-kinase catalytic subunit gamma isoform (Homo sapiens) (UniProt P48736); conditions: Compound concentration 1000.0 nM
Phosphatidylinositol 4,5-bisphosphate 3-kinase catalytic subunit gamma isoform (Homo sapiens), sequence (P48736 whole entry, looked up, canonical isoform): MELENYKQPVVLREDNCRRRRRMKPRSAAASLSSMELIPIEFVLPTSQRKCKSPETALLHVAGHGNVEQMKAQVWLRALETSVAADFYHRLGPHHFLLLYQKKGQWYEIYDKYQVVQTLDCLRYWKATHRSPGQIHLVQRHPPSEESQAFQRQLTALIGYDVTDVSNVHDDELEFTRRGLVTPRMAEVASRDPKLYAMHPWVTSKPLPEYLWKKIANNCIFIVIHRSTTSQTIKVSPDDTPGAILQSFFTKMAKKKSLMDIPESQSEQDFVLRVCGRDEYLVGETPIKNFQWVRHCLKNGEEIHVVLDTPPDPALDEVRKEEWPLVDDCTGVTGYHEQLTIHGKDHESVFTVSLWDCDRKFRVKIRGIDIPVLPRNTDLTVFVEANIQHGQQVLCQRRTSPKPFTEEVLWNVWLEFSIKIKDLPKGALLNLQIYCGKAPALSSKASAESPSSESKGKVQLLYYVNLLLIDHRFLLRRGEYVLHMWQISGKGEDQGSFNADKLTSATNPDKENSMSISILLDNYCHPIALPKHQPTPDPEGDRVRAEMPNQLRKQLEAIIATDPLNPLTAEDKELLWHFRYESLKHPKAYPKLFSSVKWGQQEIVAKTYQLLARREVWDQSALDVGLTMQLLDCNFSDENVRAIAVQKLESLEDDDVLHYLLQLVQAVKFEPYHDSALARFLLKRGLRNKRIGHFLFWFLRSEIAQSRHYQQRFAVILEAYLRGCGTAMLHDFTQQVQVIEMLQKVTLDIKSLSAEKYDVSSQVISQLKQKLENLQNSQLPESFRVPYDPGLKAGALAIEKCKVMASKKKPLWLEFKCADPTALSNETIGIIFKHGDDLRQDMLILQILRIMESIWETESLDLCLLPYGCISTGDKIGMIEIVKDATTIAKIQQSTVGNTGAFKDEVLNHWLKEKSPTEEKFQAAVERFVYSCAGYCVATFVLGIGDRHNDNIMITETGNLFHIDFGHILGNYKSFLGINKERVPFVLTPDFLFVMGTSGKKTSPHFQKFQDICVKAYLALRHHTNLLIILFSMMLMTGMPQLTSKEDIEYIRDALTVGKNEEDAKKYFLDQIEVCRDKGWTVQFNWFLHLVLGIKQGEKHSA

[28] = biological target: 1-phosphatidylinositol 3-phosphate 5-kinase (Homo sapiens) (UniProt Q9Y2I7); conditions: Compound concentration 1000.0 nM
[29] = biological target: Serine/threonine-protein kinase D2 (Homo sapiens) (UniProt Q9BZL6); conditions: Compound concentration 1000.0 nM
[30] = biological target: Serine/threonine-protein kinase RIO1 (Homo sapiens) (UniProt Q9BRS2); conditions: Compound concentration 1000.0 nM
Serine/threonine-protein kinase RIO1 (Homo sapiens), sequence (Q9BRS2 whole entry): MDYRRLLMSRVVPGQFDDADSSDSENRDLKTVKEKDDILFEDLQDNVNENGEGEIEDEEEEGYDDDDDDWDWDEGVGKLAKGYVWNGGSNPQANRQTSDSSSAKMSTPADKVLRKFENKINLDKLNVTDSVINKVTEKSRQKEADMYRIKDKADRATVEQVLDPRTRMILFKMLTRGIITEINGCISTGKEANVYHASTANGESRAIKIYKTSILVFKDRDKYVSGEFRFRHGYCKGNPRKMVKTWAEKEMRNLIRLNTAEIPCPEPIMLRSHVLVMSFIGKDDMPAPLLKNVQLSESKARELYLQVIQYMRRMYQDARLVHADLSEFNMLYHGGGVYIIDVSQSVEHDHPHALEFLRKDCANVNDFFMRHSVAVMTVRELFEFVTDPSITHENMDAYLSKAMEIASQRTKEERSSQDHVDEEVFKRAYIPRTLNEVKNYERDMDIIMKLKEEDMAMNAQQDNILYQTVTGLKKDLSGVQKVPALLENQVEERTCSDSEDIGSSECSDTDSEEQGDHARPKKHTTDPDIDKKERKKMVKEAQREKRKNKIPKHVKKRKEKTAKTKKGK

[31] = biological target: Ribosomal protein S6 kinase alpha-1 (Homo sapiens) (UniProt Q15418); conditions: Compound concentration 1000.0 nM
[32] = biological target: Ribosomal protein S6 kinase alpha-3 (Homo sapiens) (UniProt P51812); conditions: Compound concentration 1000.0 nM
Ribosomal protein S6 kinase alpha-3 (Homo sapiens), sequence (P51812 whole entry): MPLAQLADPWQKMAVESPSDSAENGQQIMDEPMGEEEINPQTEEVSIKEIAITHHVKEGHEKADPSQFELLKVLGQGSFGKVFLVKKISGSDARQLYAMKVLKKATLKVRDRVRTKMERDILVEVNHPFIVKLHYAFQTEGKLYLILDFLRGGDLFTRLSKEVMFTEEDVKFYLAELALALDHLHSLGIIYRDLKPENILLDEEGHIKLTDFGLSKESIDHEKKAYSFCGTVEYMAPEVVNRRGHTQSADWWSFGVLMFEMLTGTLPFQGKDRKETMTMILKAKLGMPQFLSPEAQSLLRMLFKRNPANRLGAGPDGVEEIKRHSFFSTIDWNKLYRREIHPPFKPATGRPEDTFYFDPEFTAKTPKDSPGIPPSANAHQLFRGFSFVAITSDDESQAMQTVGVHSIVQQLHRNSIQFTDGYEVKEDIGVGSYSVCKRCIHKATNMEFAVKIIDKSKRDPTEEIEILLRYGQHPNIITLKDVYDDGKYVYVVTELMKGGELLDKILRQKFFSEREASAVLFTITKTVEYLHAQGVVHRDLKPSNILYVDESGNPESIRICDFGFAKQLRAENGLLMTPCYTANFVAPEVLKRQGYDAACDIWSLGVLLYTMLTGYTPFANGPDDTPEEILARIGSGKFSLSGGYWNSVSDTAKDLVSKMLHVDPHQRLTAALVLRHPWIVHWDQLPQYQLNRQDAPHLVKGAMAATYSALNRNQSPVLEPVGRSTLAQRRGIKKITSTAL

[33] = biological target: Ribosomal protein S6 kinase alpha-3 (Homo sapiens) (UniProt P51812); conditions: Compound concentration 1000.0 nM; remark: listed apart in the source
[34] = biological target: Serine/threonine-protein kinase SBK1 (Homo sapiens) (UniProt Q52WX2); conditions: Compound concentration 1000.0 nM
[35] = biological target: Serine/threonine-protein kinase tousled-like 1 (Homo sapiens) (UniProt Q9UKI8); conditions: Compound concentration 1000.0 nM
[36] = biological target: Serine/threonine-protein kinase tousled-like 2 (Homo sapiens) (UniProt Q86UE8); conditions: Compound concentration 1000.0 nM
[37] = biological target: TRAF2 and NCK-interacting protein kinase (Homo sapiens) (UniProt Q9UKE5); conditions: Compound concentration 1000.0 nM
[38] = biological target: Phosphatidylinositol 3-kinase catalytic subunit type 3 (Homo sapiens) (UniProt Q8NEB9); conditions: Compound concentration 1000.0 nM
[39] = biological target: Wee1-like protein kinase (Homo sapiens) (UniProt P30291); conditions: Compound concentration 1000.0 nM
Wee1-like protein kinase (Homo sapiens), sequence (P30291 whole entry, looked up): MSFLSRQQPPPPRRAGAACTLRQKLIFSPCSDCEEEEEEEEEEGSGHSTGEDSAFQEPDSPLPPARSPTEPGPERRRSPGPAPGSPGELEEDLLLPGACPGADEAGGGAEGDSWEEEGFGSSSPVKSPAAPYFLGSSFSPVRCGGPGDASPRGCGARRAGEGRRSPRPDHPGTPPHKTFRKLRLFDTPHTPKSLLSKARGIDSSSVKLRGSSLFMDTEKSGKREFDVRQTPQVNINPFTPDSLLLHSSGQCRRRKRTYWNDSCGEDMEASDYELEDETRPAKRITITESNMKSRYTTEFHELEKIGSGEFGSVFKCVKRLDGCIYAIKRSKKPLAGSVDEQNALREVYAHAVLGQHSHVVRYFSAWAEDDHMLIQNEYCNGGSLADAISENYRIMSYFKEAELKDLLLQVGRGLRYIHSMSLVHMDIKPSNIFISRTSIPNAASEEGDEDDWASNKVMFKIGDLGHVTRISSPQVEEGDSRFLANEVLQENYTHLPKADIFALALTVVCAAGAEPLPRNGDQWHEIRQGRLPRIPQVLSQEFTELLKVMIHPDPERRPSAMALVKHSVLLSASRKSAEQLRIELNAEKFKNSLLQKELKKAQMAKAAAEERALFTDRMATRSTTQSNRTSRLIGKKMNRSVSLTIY

[40] = biological target: Serine/threonine-protein kinase WNK4 (Homo sapiens) (UniProt Q96J92); conditions: Compound concentration 1000.0 nM
[41] = biological target: 5-hydroxytryptamine receptor 1B (Homo sapiens) (UniProt P28222); conditions: Compound concentration 10.0 uM
[42] = biological target: 5-hydroxytryptamine receptor 2C (Homo sapiens) (UniProt P28335); conditions: Compound concentration 10.0 uM
[43] = biological target: Sodium-dependent serotonin transporter (Homo sapiens, UniProt P31645); conditions: Compound concentration 10.0 uM
Sodium-dependent serotonin transporter, sequence (P31645 whole entry, looked up): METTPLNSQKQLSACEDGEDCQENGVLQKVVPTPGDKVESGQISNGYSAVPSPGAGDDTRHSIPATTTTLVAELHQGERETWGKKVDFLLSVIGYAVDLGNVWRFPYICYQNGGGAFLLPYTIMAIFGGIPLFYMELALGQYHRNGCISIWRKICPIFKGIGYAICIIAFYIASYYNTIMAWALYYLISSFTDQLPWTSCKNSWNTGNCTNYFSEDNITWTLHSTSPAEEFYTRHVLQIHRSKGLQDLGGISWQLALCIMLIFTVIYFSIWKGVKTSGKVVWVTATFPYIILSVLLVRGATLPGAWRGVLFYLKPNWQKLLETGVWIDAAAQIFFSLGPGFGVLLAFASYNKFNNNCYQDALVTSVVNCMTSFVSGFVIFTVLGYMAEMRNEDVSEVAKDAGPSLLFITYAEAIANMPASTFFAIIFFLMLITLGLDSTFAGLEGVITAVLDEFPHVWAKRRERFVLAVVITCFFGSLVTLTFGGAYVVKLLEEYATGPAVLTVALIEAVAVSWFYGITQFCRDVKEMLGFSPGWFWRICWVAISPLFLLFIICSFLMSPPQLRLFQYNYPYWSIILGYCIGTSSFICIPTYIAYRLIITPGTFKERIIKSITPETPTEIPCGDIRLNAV

[44] = biological target: Mu-type opioid receptor (Homo sapiens) (UniProt P35372); conditions: Compound concentration 10.0 uM
[45] = biological target: Alpha-2C adrenergic receptor (Homo sapiens) (UniProt P18825); conditions: Compound concentration 10.0 uM

COc1cccc(CNC(=O)c2nc3scc(COCc4ccc(C(=O)O)cc4)c3c(=O)[nH]2)c1 [T-26c]
inactive: residual activity [1] 87.2% | residual activity [2] 86.4% | residual activity [3] 84.2% | residual activity [4] 64.5% | residual activity [5] 82.1% | residual activity [6] 94.1% | residual activity [7] 60.4% | residual activity [8] 57.5% | residual activity [9] 92.5% | residual activity [10] 100% | residual activity [11] 83% | residual activity [12] 100% | residual activity [13] 100% | residual activity [14] 100% | residual activity [15] 98% | residual activity [16] 100% | residual activity [17] 83.1% | residual activity [18] 100% | residual activity [19] 100% | residual activity [20] 100% | residual activity [21] 61.7% | residual activity [22] 96.7% | residual activity [23] 87.8% | residual activity [24] 87.8% | residual activity [25] 70.4% | residual activity [26] 85.7% | residual activity [27] 76.8% | residual activity [28] 100% | residual activity [29] 100% | residual activity [30] 52.1% | residual activity [31] 100% | residual activity [32] 100% | residual activity [33] 56.5% | residual activity [34] 53.7% | residual activity [35] 100% | residual activity [36] 100% | residual activity [37] 100% | residual activity [38] 58.6% | residual activity [39] 95.7% | residual activity [40] 100% | inhibition [41] 15.9% | inhibition [42] 12.5% | inhibition [43] -3.64% | inhibition [44] -3.34% | inhibition [45] 4.23%
